Patent US9890138B2, “Diaminopyrimidine derivatives and processes for the preparation thereof” (YUHAN CORPORATION, priority 2011, dated 2018)
Structures can show the parent of a compound that is named as a salt.

Target: T1, human 5-HT4(a) (Homo sapiens, UniProt Q13639)
T1 construct: host or cells: GeneBlAzer HTR4-CRE-bla CHO-K1 cells
Assay: Evaluation of agonistic activity in CHO-K1 cells expressing human 5-HT4(a) (GeneBlAzer HTR4-CRE-bla CHO-K1, beta-lactamase reporter)
Format: cell-based
Details: CHO-K1 cells stably expressing human 5-HT4(a)
Method: Test Example 1: Evaluation of Agonistic Activity in CHO-K1 Cells Expressing Human 5-HT4(a)
As CHO-K1 cells stably expressing human 5-HT4(a), we used the GeneBlAzer HTR4-CRE-bla CHO-K1 cells (Invitrogen Corp.). The cells were cultured, under the condition of 37[…] and 5% CO2, in a DMEM supplemented with 10% fetal bovine serum (FBS), 25 mM HEPES (pH7.4), 600 μg/ml hygromycin B, 0.1 mM non-essential amino acids, 100 unit/ml penicillin and 100 μg/ml streptomycin. Subcultures were performed three times per one week, each being at less than 80% confluence. At the previous day before treating test compounds, the cells were collected using 0.5% trypsin/EDTA and then diluted with a DMEM supplemented with 1% FBS, 25 mM HEPES, and 0.1 mM non-essential amino acids into 3.125×10^5 cells/ml. 32 μl of the diluted cells were added into 384-well plate (10^4 cells per well) and then incubated overnight. After the overnight culture, 8 μl of the medium having 1% of DMSO was added into the cell-free control well and the non-stimulating control well, respectively. 8 μl of the respective test compound dilutions (which had been prepared by diluting by 100-times with the medium as mentioned in the above) having 1% of DMSO were added to the respective remaining wells. After being cultured in the incubator for 5 hours, the wells of the 384-plate were treated with the substrate solution (8 μl per well) prepared according to the vendor's instruction (i.e., Invitrogen's instruction), and then incubated in the dark room for additional two hours. Agonistic activities on 5-HT4 receptor were evaluated, on the basis of fluorescence values of the cleavage-products by beta-lactamase. After exciting to 410 nm of wavelength using a fluorescence detector (Genios Pro), we measured the fluorescence values at two emission wavelengths (first wavelength: 465 nm, second wavelength: 535 nm). Data were analyzed on the basis of the ratio of fluorescence intensities of each well at the respective wavelengths. Each EC50 value was calculated by non-linear regression analysis using the “GraphPad Prism” program, based on the activities according to 8-different concentrations of the test compounds.

T1 sequence (Q13639 1-387 isoform Q13639-2): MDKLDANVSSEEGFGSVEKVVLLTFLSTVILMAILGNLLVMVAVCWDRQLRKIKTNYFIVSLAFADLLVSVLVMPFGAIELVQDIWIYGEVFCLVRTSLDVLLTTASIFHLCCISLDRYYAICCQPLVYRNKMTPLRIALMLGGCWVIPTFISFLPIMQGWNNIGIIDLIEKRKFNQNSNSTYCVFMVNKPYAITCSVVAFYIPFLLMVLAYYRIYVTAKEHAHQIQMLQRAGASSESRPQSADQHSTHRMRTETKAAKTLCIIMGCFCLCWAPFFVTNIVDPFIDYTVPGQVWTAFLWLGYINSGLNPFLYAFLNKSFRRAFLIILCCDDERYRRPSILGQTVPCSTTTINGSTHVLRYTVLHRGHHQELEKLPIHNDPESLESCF

EC50 [nM]	SMILES
0.0034	CCCN[C@H]1CCN(c2cc(CCC)nc(Nc3ccc(C)c(C#N)c3)n2)C1 [Example 414]
0.013	CCCc1cc(N2CC[C@H](NC(C)=O)C2)nc(Nc2ccc(Cl)c(N)c2)n1 [Example 290]
0.0016	CCCCc1cc(N2CC[C@H](NC)C2)nc(Nc2ccc(N)c(C(F)(F)F)c2)n1 [Example 453]
0.0057	CCCc1cc(N2CC[C@H](NCC3CC3)C2)nc(Nc2ccc(C)c(N)c2)n1 [Example 383]
0.027	CCCc1cc(N2CCC[C@H]2C)nc(Nc2ccc(N)c(C(F)(F)F)c2)n1 [Example 323, (R)—N^1-[4-(2-methylpyrrolidin-1-yl)-6-propylpyrimidin-2-yl]-3-(trifluoromethyl)benzene-1,4-diamine]
0.028	CCCc1cc(N2CCC[C@H]2C)nc(Nc2ccc(C)c(C#N)c2)n1 [Example 326]
0.027	CCCc1cc(N2CC[C@H](NC(=O)Cc3cccs3)C2)nc(Nc2ccc(C)c(C#N)c2)n1 [Example 430]
0.0064	CCCc1cc(N2CC[C@H](NC(=O)CO)C2)nc(Nc2ccc(Cl)c(N)c2)n1 [Example 479]
0.029	CCCc1cc(N2CC[C@H](NS(C)(=O)=O)C2)nc(Nc2ccc(C)c(C#N)c2)n1 [Example 431, (S)—N-{1-[2-(3-cyano-4-methylphenylamino)-6-propylpyrimidin-4-yl]pyrrolidin-3-yl}methanesulfonamide]
0.038	CCCc1cc(N2CC[C@H](NC(C)=O)C2)nc(Nc2ccc(C)c(N)c2)n1 [Example 292, (S)—N-{1-[2-(3-amino-4-methylphenylamino)-6-propylpyrimidin-4-yl]pyrrolidin-3-yl}acetamide]
0.062	CCCc1cc(N2CC[C@H](NC(C)=O)C2)nc(Nc2ccc(OC)c(N)c2)n1 [Example 289]
0.024	CCCc1cc(N2CC[C@H](NC(C)=O)C2)nc(Nc2ccc(C)c(N)c2)n1 [Example 493, (S)-N-{1-[2-(3-amino-4-methylphenylamino)-6-propylpyrimidin-4-yl]pyrrolidin-3-yl}acetamide hydrochloride]
0.402	CCCNC[C@@H]1CCCN1c1cc(CCC)nc(Nc2cccc(C#N)c2)n1 [Example 406]
0.0026	CCCCc1cc(N2CC[C@H](NCC)C2)nc(Nc2ccc(C)c([N+](=O)[O-])c2)n1 [Example 462]
0.0026	CCCCc1cc(N2CC[C@H](NC(C)=O)C2)nc(Nc2ccc(N)c([N+](=O)[O-])c2)n1 [Example 337]
0.023	CCCc1cc(N2CC[C@H](NC(C)=O)C2)nc(Nc2cc(Cl)ccc2C)n1 [Example 255]
0.025	CCCc1cc(N2CCC[C@H]2C)nc(Nc2ccc(N)c(C#N)c2)n1 [Example 327]
0.0062	CCCCc1cc(N2CC[C@H](NCC)C2)nc(Nc2ccc(F)c(C(F)(F)F)c2)n1 [Example 468]
0.032	CCCc1cc(N2CC[C@H](NC(=O)CO)C2)nc(Nc2ccc(C)c(Cl)c2)n1 [Example 480]
0.0022	CCCc1cc(N2CC[C@H](NC(C)C)C2)nc(Nc2ccc(C)c(C#N)c2)n1 [Example 418, (S)-5-{4-[3-(isopropylamino)pyrrolidin-1-yl]-6-propylpyrimidin-2-ylamino]-2-methylbenzonitrile]
0.056	CCCc1cc(N2CC[C@H](NC(=O)CC)C2)nc(Nc2ccc(C)c(C#N)c2)n1 [Example 425]
0.0092	CCCc1cc(N2CC[C@H](N)C2)nc(Nc2ccc(Cl)c([N+](=O)[O-])c2)n1 [Example 344, (S)-4-(3-aminopyrrolidin-1-yl)-N-(4-chloro-3-nitrophenyl)-6-propylpyrimidin-2-amine dihydrochloride]
0.058	CCCc1cc(N2CC[C@H](NC(C)=O)C2)nc(Nc2cccc(SC)c2)n1 [Example 242]

The next lines start with the compound.

SMILES	EC50 [nM]
CCCc1cc(N2CC[C@H](NC3CCN(Cc4ccccc4)CC3)C2)nc(Nc2cccc(C#N)c2)n1 [Example 137, (S)-3-{4-[3-(1-benzylpiperidin-4-ylamino)pyrrolidin-1-yl]-6-propylpyrimidin-2-ylamino}benzonitrile]	0.072
CCCc1cc(N2CC[C@H](O)C2)nc(Nc2cccc(C#N)c2)n1 [Example 52, (S)-3-[4-(3-hydroxypyrrolidin-1-yl)-6-propylpyrimidin-2-ylamino]benzonitrile]	0.33
CCCc1cc(N2CC[C@H](NC(C)=O)C2)nc(Nc2ccc(F)cc2)n1 [Example 17, (S)-N-{1-[2-(4-fluorophenylamino)-6-propylpyrimidin-4-yl]pyrrolidin-3-yl}acetamide]	0.35
CCCc1cc(N2CC[C@H](NC(=O)CN3CCCCC3)C2)nc(Nc2cccc(C#N)c2)n1 [Example 71, (S)-N-{1-[2-(3-cyanophenylamino)-6-propylpyrimidin-4-yl]pyrrolidin-3-yl}-2-(piperidin-1-yl)acetamide]	0.25
CCCc1cc(N2CC[C@H](NC(=O)COC)C2)nc(Nc2cccc(C#N)c2)n1 [Example 75, (S)-N-{1-[2-(3-cyanophenylamino)-6-propylpyrimidin-4-yl]pyrrolidin-3-yl}-2-methoxyacetamide]	0.22
CCCCN[C@H]1CCN(c2cc(CCC)nc(Nc3cccc(C#N)c3)n2)C1 [Example 116, (S)-3-{4-[3-(butylamino)pyrrolidin-1-yl]-6-propylpyrimidin-2-ylamino}benzonitrile]	0.0035
CCCc1cc(N2CCC(NCC)C2)nc(Nc2ccc(F)cc2)n1 (centres unmarked) [Example 13, 4-[3-(ethylamino)pyrrolidin-1-yl]-N-(4-fluorophenyl)-6-propylpyrimidin-2-amine]	0.12
CCCc1cc(N2CC[C@H](NC(C)=O)C2)nc(Nc2ccc(Cl)c([N+](=O)[O-])c2)n1 [Example 241, (S)—N-{1-[2-(4-chloro-3-nitrophenylamino)-6-propylpyrimidin-4-yl]pyrrolidin-3-yl}acetamide]	0.012
CCCc1cc(N2CCCC2C)nc(Nc2ccc3cc[nH]c3c2)n1 (centres unmarked) [Example 190]	0.05
CCCc1cc(N2CC[C@H](NC)C2)nc(Nc2ccc(C)c(C#N)c2)n1 [Example 170]	0.0013
CCCc1cc(N2CC[C@H](NC(CC)CC)C2)nc(Nc2cccc(C#N)c2)n1 [Example 128, (S)-3-{4-[3-(pentan-3-ylamino)pyrrolidin-1-yl]-6-propylpyrimidin-2-ylamino}benzonitrile]	0.039
CCCc1cc(N2CC[C@H](NC)C2)nc(Nc2ccc(F)c(C#N)c2)n1 [Example 180]	0.0087
CCCc1cc(N2CC[C@H](NCc3ccccc3F)C2)nc(Nc2cccc(C#N)c2)n1 [Example 106, (S)-3-{4-[3-(2-fluorobenzylamino)pyrrolidin-1-yl]-6-propylpyrimidin-2-ylamino}benzonitrile]	0.13
CCCc1cc(N2CC[C@H](NC(C)CCC(C)C)C2)nc(Nc2cccc(C#N)c2)n1 (stereo partly drawn) [Example 134, (S)-3-{4-[3-(5-methylhexan-2-ylamino)pyrrolidin-1-yl]-6-propylpyrimidin-2-ylamino}benzonitrile]	0.214
CCCc1cc(N2CC[C@H](NC(=O)CC(F)(F)F)C2)nc(Nc2cccc(C#N)c2)n1 [Example 82, (S)-N-{1-[2-(3-cyanophenylamino)-6-propylpyrimidin-4-yl]pyrrolidin-3-yl}-3,3,3-trifluoropropanamide]	0.048
CCCCc1cc(N2CCC[C@H]2C)nc(Nc2ccc(C)c(C#N)c2)n1 [Example 230]	0.047
CCCc1cc(N2CC[C@H](NC(=O)C(C)C)C2)nc(Nc2cccc(C#N)c2)n1 [Example 81, (S)-N-{1-[2-(3-cyanophenylamino)-6-propylpyrimidin-4-yl]pyrrolidin-3-yl}isobutyramide]	0.205
CCCc1cc(N2CC[C@H](NC(=O)CCc3ccc(O)cc3)C2)nc(Nc2cccc(C#N)c2)n1 [Example 155, (S)-N-{1-[2-(3-cyanophenylamino)-6-propylpyrimidin-4-yl]pyrrolidin-3-yl}-3-(4-hydroxyphenyl)propanamide]	0.417
CCCCc1cc(N2CC[C@H](N)C2)nc(Nc2cccc(C#N)c2)n1 [Example 233, (S)-3-[4-(3-aminopyrrolidin-1-yl)-6-butylpyrimidin-2-ylamino]benzonitrile dihydrochloride]	0.019
CCCCCN[C@H]1CCN(c2cc(CCC)nc(Nc3cccc(C#N)c3)n2)C1 [Example 94, (S)-3-{4-[3-(pentylamino)pyrrolidin-1-yl]-6-propylpyrimidin-2-ylamino}benzonitrile]	0.041
CCCc1cc(N2CCC[C@H]2CO)nc(Nc2ccc(Cl)c([N+](=O)[O-])c2)n1 [Example 196, (S)-{1-[2-(4-chloro-3-nitrophenylamino)-6-propylpyrimidin-4-yl]pyrrolidin-2-yl}methanol]	0.1
